How the values were obtained:
[1] = tested on: DNFB contact hypersensitivity; experiment: Dinitrofluorobenzene (DNFB) contact hypersensitivity test, ear thickening after topical application; type: in vivo, C57 BL/6JICO mice; conditions: for % suppression relative to the control batch, LEFT EAR / % suppression relative to the control batch, RIGHT EAR / MEAN VALUES LEFT EAR % INCREASE / MEAN VALUES RIGHT EAR % INCREASE: 5 days
Source text: Study of the Anti-allergic activity of the Peptide compounds, by the Dinitrofluorobenzene (DNFB) contact Hypersensitivity test.
Female C57 BL/6JICO mice 5 weeks old are separated into ten batches of ten animals (five per cage), with free access to water and food, subjected to a photoperiod of twelve hours of light per twenty-four hours.
The animals in batches 1 to 6 receive daily and per topical application on the shaved skin of the back, the products to be studied, dissolved in propylene glycol, in a constant volume of 50 μl and for five consecutive days.
PIII--Batches 1 - 2 - 3--2.5 μg --0.5 μg--0.1 μg--mouse/day
PIV--Batches 4 - 5 - 6 - 2.5μg--0.5 μg--0.1 μg--mouse/day
The animals of the X batch serve as controls (and receive only, 50 μl of propylene glycol per topical application for five days).
On the fifth day, thirty minutes after the last application, all the mice are sensitized with 25 μl of DNFB (2.4-Dinitro-1-FluoroBenzene (FLUKA CHEMIKA PURUM at 97% batch No. 33820890) at 2% in a 4 to 1 mixture of acetone (SDS ref. 0510) and triolein (FLUKA) applied topically over the dorsal region of shaved skin.
On the sixth day, a new sensitization is carried out by application of DNFB.
On the eleventh day, the thickness of the ears of the mice is measured with the aid of a micrometer (ROCH 0 to 25 mm in 1/100 mm) in order to obtain base values, then the ears are stimulated by topical application of 20 μl of DNFB at 0.8%.
On the twelfth day, the thickness of the ears is again measured. The mean value of thickening of the ears is established for the mice in the batches which had received the products to be studied, as well as for the mice in the control batch.
The percentage of suppression where appropriate will be expressed by the following calculation: [formula]
Comparative study of the activity of Lipoyl-Peptides and of their peptide structures on DNFB contact hypersensitivity.
The method used is that described above in Example 10.
Contact hypersensitivity induced in mice by Dinitrofluorobenzene--"DNBF"
Batch I: (DL) - Lip - Glu - His - D.homoPhe - Arg - Trp - Gly - NH2
Batch II: H - Glu - His - D.homoPhe - Arg - Trp - Gly - NH2
Batch III: Control=(DL) - Lipoic Acid
Solvent: propylene Glycol previously used as control in Example 10.
Control: dose used"DL-Lipoic-Acid"=10 ng per mouse and per day.
On the fifth day, thirty minutes after the last application, all the mice were sensitized with 25 μl of DNFB (2.4-Dinitro-1-FluoroBenzene (FLUKA CHEMIKA PURUM at 97% batch No. 33820890) at 2% in a 4 to 1 mixture of acetone (SDS ref. 05510) and triolein (FLUKA) applied topically over the dorsal region of shaved skin.
On the twelfth day, the thickness of the ears is again measured. The mean value of thickening of the ears is established for the mice in the batches which had received the products to be studied, as well as for the mice in the control batch. The percentage of suppression where appropriate will be expressed by the following calculation: [formula]

[2] = tested on: PGE2 production by MRC5 fibroblasts stimulated by IL1; experiment: PGE2 production by fibroblasts stimulated by IL1 (RIA); type: cell-based, human; conditions: for % inhibition (PGE2) / PGE2: IL1:5 ng
Method: 2-1 Culture of embryonic pulmonary fibroplasts [sic] of human origin:
We chose to use the strain ATCC MRC5 maintained in the laboratory continuously and already tested by Cannon et al. (J. Immunol., 1986).
After subculturing, the fibroplasts [sic] are cultured in microwells (24-well plate of 2 cm2, Falcon). The innoculum is 30 000 cells per well; the nutrient medium used is composed of RPMI 1640 (90%) and of complement-free fetal calf serum (FCS, 10%). The medium is changed every two days until the cells become confluent.
The monocell layers thus obtained are washed and preincubated for 24 hours in fresh medium containing only 1% of FCS. […] After incubating for 20 minutes in the presence of these compounds, human recombinant IL1 (Tebu, France) at a concentration of 5, 2.5 or 0.5 ng/ml of medium is placed in contact with cells for 18 hours.
At the end of this incubation, the supernatants are collected and frozen at -80° C. until the analysis is carried out. The monocell layers are fixed with methanol.
The RIA assay is carried out according to the method described by Dray et al. (Europ. J. Invest. 1975). 3 series of experiments, in duplicate, were carried out for each concentration of product studied and for the controls. The results are expressed in pg/μg of DNA. The inhibitory effect is expressed in percentage relative to the controls.
In order to avoid any possible error due to the counting by optical microscopy, the DNA was assayed by a fluorimetric method according to the procedure described by Brunk et al. (Analytical Biochem., 1979).

[(DL) Lip] His - D.homoPhe - Arg - Trp - NH2 [PIV]
% suppression relative to the control batch, LEFT EAR ([1]; 0.1 μg/mouse/day topical): -65.46% | % suppression relative to the control batch, RIGHT EAR ([1]; 0.1 μg/mouse/day topical): -65.46% | MEAN VALUES LEFT EAR % INCREASE ([1]; 0.1 μg/mouse/day topical): 20.35% | MEAN VALUES RIGHT EAR % INCREASE ([1]; 0.1 μg/mouse/day topical): 20.35% | % suppression relative to the control batch, LEFT EAR ([1]; 0.5 μg/mouse/day topical): -69.40% | % suppression relative to the control batch, RIGHT EAR ([1]; 0.5 μg/mouse/day topical): -69.40% | MEAN VALUES LEFT EAR % INCREASE ([1]; 0.5 μg/mouse/day topical): 18.03% | MEAN VALUES RIGHT EAR % INCREASE ([1]; 0.5 μg/mouse/day topical): 18.03% | % suppression relative to the control batch, LEFT EAR ([1]; 2.5 μg/mouse/day topical): -69.47% | % suppression relative to the control batch, RIGHT EAR ([1]; 2.5 μg/mouse/day topical): -69.47% | MEAN VALUES LEFT EAR % INCREASE ([1]; 2.5 μg/mouse/day topical): 17.99% | MEAN VALUES RIGHT EAR % INCREASE ([1]; 2.5 μg/mouse/day topical): 17.99% | suppression of the cutaneous hypersensitivity reaction induced by DiNitroFluoroBenzene ([1]; overall, Example 10 (2.5, 0.5, 0.1 μg/mouse/day)): 68.11% | % inhibition (PGE2) ([2]; 10^-4 M): 60% | PGE2 ([2]; 10^-4 M): 2964 ± 184 pg/mg of DNA | % inhibition (PGE2) ([2]; 10^-5 M): 38% | PGE2 ([2]; 10^-5 M): 4580 ± 230 pg/mg of DNA | % inhibition (PGE2) ([2]; 10^-6 M): 34% | PGE2 ([2]; 10^-6 M): 4900 ± 340 pg/mg of DNA | % inhibition (PGE2) ([2]; 10^-7 M): 17% | PGE2 ([2]; 10^-7 M): 6150 ± 365 pg/mg of DNA | % inhibition (PGE2) ([2]; 10^-8 M): 17% | PGE2 ([2]; 10^-8 M): 6142 ± 255 pg/mg of DNA | % inhibition (PGE2) ([2]; 10^-9 M): 32% | PGE2 ([2]; 10^-9 M): 5047 ± 279 pg/mg of DNA | inhibitory action on IL1-stimulated PGE2 production (in words) ([2]; overall): possess an inhibitory power
